In assay [1] the target is human BCL6 BTB domain (Trx-6xHis-BCL6) (Homo sapiens (Human), UniProt P41182). Briefly: HTRF in vitro assay (BCL6 BTB domain / BCOR-AF633 peptide). Type of assay: binding. A general note: Time-resolved FRET reads energy transfer from a long-lived donor to a nearby acceptor.
Experimental: The % inhibition at each concentration was calculated by normalising FRET ratio to the appropriate high (DMSO with all reagents) and low (DMSO without BCL6) controls.
Assay [2] concerns the target BCL6-NCOR2(SMRT) corepressor protein-protein interaction (Homo sapiens (Human), UniProt P41182). In words: NanoBRET cell assay in transfected HEK293T cells. In kind it is cell-based. To be noted: further generated data (Table 2b); HEK293T cells, 6 hr; read-out: NanoBRET cell pIC50 (converted). On the technique in general: In BRET a luciferase serves as donor, and the signal depends on an acceptor being close.
Text: A cellular nano-Bioluminescence Resonance Energy Transfer (nanoBRET) assay (Promega NanoBRET Nano-Glo Detection System, catalogue number N1662) was used to detect inhibition of the BCL6-NCOR2(SMRT) corepressor protein-protein interaction. DNA encoding full length BCL6 and NCOR2 were inserted into pFC32K.NanoLuc and pFC14K.HaloTag vectors (Promega) to produce C-terminal tagged fusion proteins BCL6-nanoLuc and NCOR2-HaloTag, respectively. […] Frozen transfected HEK293T cells were thawed, centrifuged and freezing medium was replaced by phenol red-free OptiMEM+4% FBS (Life Technology). […] Cells were incubated for 6 hr at 37° C./5% CO2 then NanoBRET furimazine substrate (Promega) was added to give a final concentration of 10 μM. After a short centrifugation the plates were read on an Envision (Perkin Elmer) plate reader equipped with a LUM/D600 Dual mirror, Lum 450/40 nm bandpass and D605 nm longpass filters, with a 0.2 sec reading to determine the BRET ratio. The % inhibition at each test concentration was calculated by normalising the BRET ratio to the appropriate high and low controls.

[3] abbreviates: further generated data (Table 1b), 1 nM Trx-6xHis-BCL6, 0.5 nM anti-6xHis-Terbium cryptate.
Where [4] appears, read: initially generated data (Table 1a), 10 nM Trx-6xHis-BCL6, 1 nM anti-6xHis-Terbium cryptate.

Regarding `Cn1c(=O)cc(NC(C)(C)c2ncccn2)c2cc(Nc3cc(Cl)nc(Cl)c3Cl)ccc21` [Example 13, 1-methyl-4-((2-(pyrimidin-2-yl)propan-2-yl)amino)-6-((2,3,6-trichloropyridin-4-yl)amino)quinolin-2(1H)-one], in assay [1] (setting [3]), the “HTRF pIC50” value was 6.66. Besides, the IC50 in assay [2] is 1700 nM.
The corresponding values for `CC(Nc1cc(=O)n(C)c2ccc(Nc3ccnc(Cl)c3C#N)cc12)c1ncc(C2CCC2)cn1` (stereo not drawn) [Example 24f, 2-chloro-4-((4-((1-(5-cyclobutylpyrimidin-2-yl)ethyl)amino)-1-methyl-2-oxo-1,2-dihydroquinolin-6-yl)amino)nicotinonitrile] are 7.26 and 1620 nM.
On to `CC(Nc1cc(=O)n(C)c2ccc(Nc3ccnc(Cl)c3C#N)cc12)c1ncc(N2CCOCC2)cn1` (stereo not drawn) [Example 10x, 2-chloro-4-((1-methyl-4-((1-(5-morpholinopyrimidin-2-yl)ethyl)amino)-2-oxo-1,2-dihydroquinolin-6-yl)amino)nicotinonitrile], for which, in assay [1] (setting [3]), the “HTRF pIC50” value was determined as 7.56. Also, the IC50 in assay [2] was 1260 nM.
The corresponding values for `COCC(C)(C)Nc1cc(=O)n(C)c2ccc(Nc3nc(-n4nc(C)cc4C)ncc3Cl)cc12` [Example 14e, 6-((5-chloro-2-(3,5-dimethyl-1H-pyrazol-1-yl)pyrimidin-4-yl)amino)-4-((1-methoxy-2-methylpropan-2-yl)amino)-1-methylquinolin-2(1H)-one] are 6.54 and 10000 nM.
With `Cc1cc(Nc2ccc3c(c2)c(NC(C)c2ncccn2)cc(=O)n3C)c(C#N)c(Cl)n1` (stereo not drawn) [Example 1w, 2-chloro-6-methyl-4-[[1-methyl-2-oxo-4-(1-pyrimidin-2-ylethylamino)-6-quinolyl]amino]pyridine-3-carbonitrile], the “HTRF pIC50” value in assay [1] (setting [3]) is reported as 6.90; in assay [1] (setting [4]), 6.29. The IC50 in assay [2] was 1580 nM.
Take `CC(Nc1cc(=O)n(C)c2ccc(Nc3ccnc(Cl)c3C#N)cc12)c1cc2ccccc2cn1` (stereo not drawn) [Example 24e, 2-chloro-4-((4-((1-(isoquinolin-3-yl)ethyl)amino)-1-methyl-2-oxo-1,2-dihydroquinolin-6-yl)amino)nicotinonitrile]: in assay [1] (setting [3]), the “HTRF pIC50” value is 6.38. For the same molecule, the IC50 in assay [2] is 3470 nM.
The corresponding values for `Cn1c(=O)cc(NC2(c3ncccn3)CCOC2)c2cc(Nc3ccnc(Cl)c3C#N)ccc21` (stereo not drawn) [Example 19i, 2-chloro-4-((1-methyl-2-oxo-4-((3-(pyrimidin-2-yl)tetrahydrofuran-3-yl)amino)-1,2-dihydroquinolin-6-yl)amino)nicotinonitrile] are 6.38 and 9330 nM.
For `CC(Nc1nc(=O)n(C)c2ccc(Nc3nc(N4C[C@@H](C)O[C@@H](C)C4)ncc3Cl)cc12)c1ncccn1` (stereo partly drawn) [Example 26e, 6-[[5-chloro-2-[(2R,6S)-2,6-dimethylmorpholin-4-yl]pyrimidin-4-yl]amino)-1-methyl-4-(1-pyrimidin-2-ylethylamino)quinazolin-2-one], the “HTRF pIC50” value in assay [1] (setting [3]) is 7.03. For the same molecule, the IC50 in assay [2] was 2880 nM.
On to `CNC(=O)c1cc(Nc2ccc3c(c2)c(NC(C)c2ncccn2)cc(=O)n3C)c(C#N)cn1` (stereo not drawn) [Example 19c], for which the IC50 in assay [1] (further generated data (Table 1b), 1 nM Trx-6xHis-BCL6, 0.5 nM anti-6xHis-Terbium cryptate, read-out: HTRF pIC50 (converted)) was 891 nM; in assay [2], 29500 nM.
For `CC(Nc1cc(=O)n(CCN2C(=O)CCC2=O)c2ccc(Nc3ccnc(Cl)c3C#N)cc12)c1ncccn1` (stereo not drawn) [Example 1c, 2-chloro-4-[[1-[2-(2,5-dioxopyrrolidin-1-yl)ethyl]-2-oxo-4-(1-pyrimidin-2-ylethylamino)-6-quinolyl]amino]pyridine-3-carbonitrile], the “HTRF pIC50” value in assay [1] (setting [3]) was found to be 6.73; in assay [1] (setting [4]) it was 6.63. Besides, the IC50 in assay [2] is 22400 nM.
Take `Cn1c(=O)cc(NC(c2ncccn2)C2CC2)c2cc(Nc3ccnc(Cl)c3C#N)ccc21` (stereo not drawn) [Example 10p, 2-chloro-4-((4-((cyclopropyl(pyrimidin-2-yl)methyl)amino)-1-methyl-2-oxo-1,2-dihydroquinolin-6-yl)amino)nicotinonitrile]: in assay [1] (setting [3]), the “HTRF pIC50” value turned out to be 6.44. Further, in assay [2], the IC50 was 2340 nM.

Values taken from patent US11161839B2, “2-quinolone derived inhibitors of BCL6” (Cancer Research Technology Limited, priority 2017, dated 2021).
